Laboratory results: patent publication US12540150B1, “Fluorogenic probe using a Mislow-Evans rearrangement for real-time imaging of hydrogen peroxide” (University of Pittsburgh—Of the Commonwealth System of …, priority 2020, dated 2026)
Several values for one entry are separate records, joined by “and”; a condition that tells them apart may be missing. Equal entries are not always repeated.

Experiments:
[1] = Selectivity of 1: reaction with ONOO^−; conditions: for Fluorescence Intensity: pH 7, 25° C., 15 min
Protocol: Next, it was tested whether OCl^− and ONOO^− (peroxynitrite), would react with 1. A solution of 0, 1, 10, or 22 μM ONOO— in 0.3 M NaOH (20 μL) or 1, 10, 100, or 1000 μM NaOCl in water (20 μL) was added to the wells of a black 96-well plate. A solution of 10 μM 1 in DMSO (560 μL) and 5:95 MeCN/1.2 M phosphate pH 7 buffer (4.48 mL) was made; this solution (180 μL) was transferred to each of the wells. The samples were allowed to incubate at 25° C. for 15 min before the fluorescence was measured. […] This may be attributed to trace amounts of H2O2 in the ONOO^− solution.

[2] = Selectivity of 1: reaction with NO·; conditions: 15 min minus 0 min
[3] = Selectivity of 1: reaction with ^1O2; conditions: for Fluorescence: 40 min minus 0 min
Protocol: Probe 1 was titrated with NaMoO4 and H2O2 to determine whether ^1O2 reacted with the probe 1. A solution of 100 μM 1 in ethanol (20 μL) was added to 5:95 methanol/50 mM phosphate pH 7 buffer (140 μL). Water, 1 mM sodium azide, or 104 U/mL catalase (20 μL) was added to the mixture. NaMoO4·2H2O (11.1 mg) was added to ultrapure water (2.00 mL). This solution was diluted to 20 μM, 200 μM, and 2.00 mM. H2O2 was diluted to 200 μM and 2.00 mM. Equal volumes of NaMoO4 solution and H2O2 were added together, and an aliquot (20 μL) was immediately transferred to the solution containing 1. The fluorescence intensity was measured immediately and again after incubation at 25° C. for 40 min. A large fluorescence increase was observed only in the samples containing […] of both Na2MoO4 and H2O2(FIG. 16 and Table 7). […] 10^4 UmL^−1 catalase was added to the solutions to verify that 1 indeed responded to excess H2O2 that had not reacted with the Na2MoO4. The addition of catalase abolished the fluorescence signal observed in the presence of high concentrations of H2O2(FIG. 16 and Table 7). The fluorescence values in Table 7 are the fluorescence at 40 min minus the fluorescence at 0 min.

[4] = Selectivity of 1: reaction with NO2^−; conditions: for Fluorescence: change over first 15 min
Protocol: It was then sought to determine whether RNS would react with 1 to produce fluorescence. The probe 1 was first exposed to NO2^− at various concentrations. NaNO2 (97.0 mg) was dissolved in ultrapure water (2.00 mL). […] A solution of 100 μM 1 in ethanol (20 μL) was added to 5:95 methanol/50 mM phosphate pH 7 buffer (160 μL). The NaNO2 or H2O2 solutions (20 μL) were added to the solution containing 1 and the fluorescence intensity was measured immediately and again after incubation at 25° C. for 15 min. The fluorescence change over the first 15 min was reported for NO2^− in FIG. 20 and Table 11.

HeLa cells = experiment: Imaging of exogenously added H2O2 in HeLa cells; type: cell-based; conditions: 0.5 μM 1, 37° C.
Protocol: It was then attempted to image H2O2 within cells. HeLa cells were seeded on 35-mm glass bottom dishes (MatTek Corporation, Ashland, MA) and incubated with 0.5 μM 1 in 0.1% DMSO in DMEM (10% FBS with penicillin/streptomycin) prior to imaging. After washing with HBSS and replacing the media, H2O2 was added. The dish was inserted in a closed, thermo-controlled (37° C.) stage top incubator (Tokai Hit Co., Shizuoka-ken, Ja-pan) atop the motorized stage of an inverted Nikon TiE fluorescent microscope (Nikon Inc., Melville, NY) equipped with a 60× oil immersion optic (Nikon, CFI PlanFluor, NA 1.49) and NIS Elements Software. The sample was excited using the 470 nm line of a Lumencor diode-pumped light engine (SpectraX, Lumencor Inc., Beaverton OR). Fluorescence was detected using an ET-GFP filter set (Chroma Technology Corp) and ORCA-Flash 4.0 sCMOS camera (HAMAMATSU Corporation, Bridgewater, NJ).

SMILES: Oc1ccc2c(c1)Oc1cc(O/C=C/C[Se]c3ccccc3)ccc1[C@@]21OCc2ccccc21 [Compound 1, (S,E)-6′-((3-(Phenylselanyl)prop-1-en-1-yl)oxy)-3H-spiro[isobenzofuran-1,9′-xanthen]-3′-ol]
- fluorescence change with increasing ONOO^− concentration [1]: slight increase in fluorescence intensity
- Fluorescence Intensity ([1]; 100 nM ONOO^−): 23,606 and 21,961 and 20,229
- Fluorescence Intensity ([1]; 1.0 μM ONOO^−): 46,271 and 39,358 and 35,209
- Fluorescence Intensity ([1]; 2.2 μM ONOO^−−): 63,954 and 56,351 and 61,987
- Fluorescence ([2]; 0.1 μM H2O2): 9,370 and 9,525 and 9,517
- Fluorescence ([2]; 1 μM H2O2): 26,155 and 26,618 and 27,176
- Fluorescence ([2]; 10 μM H2O2): 111,008 and 106,765 and 111,053
- cause of fluorescence increase (reaction with ^1O2) [3]: not by ^1O2 itself
- Fluorescence ([3]; NaN3, NaMoO4 0 μM, 0 μM H2O2): 47,427 and 27,816 and 33,822
- Fluorescence ([3]; NaN3, NaMoO4 0 μM, 10 μM H2O2): 22,037 and 25,574 and 26,509
- Fluorescence ([3]; NaN3, NaMoO4 0 μM, 100 μM H2O2): 86,779 and 47,879 and 71,128
- Fluorescence ([3]; NaN3, NaMoO4 1 μM, 0 μM H2O2): 17,056 and 15,590 and 28,737
- Fluorescence ([3]; NaN3, NaMoO4 1 μM, 10 μM H2O2): 47,687 and 30,921 and 55,460
- Fluorescence ([3]; NaN3, NaMoO4 1 μM, 100 μM H2O2): 75,276 and 58,618 and 52,801
- Fluorescence ([3]; NaN3, NaMoO4 10 μM, 0 μM H2O2): 48,985 and 26,189 and 39,286
- Fluorescence ([3]; NaN3, NaMoO4 10 μM, 10 μM H2O2): 41,011 and 44,837 and 41,481
- Fluorescence ([3]; NaN3, NaMoO4 10 μM, 100 μM H2O2): 128,720 and 99,199 and 137,922
- Fluorescence ([3]; NaN3, NaMoO4 100 μM, 0 μM H2O2): 41,150 and 60,360 and 31,422
- Fluorescence ([3]; NaN3, NaMoO4 100 μM, 10 μM H2O2): 36,764 and 62,417 and 61,596
- Fluorescence ([3]; NaN3, NaMoO4 100 μM, 100 μM H2O2): 427,359 and 459,433 and 473,881
- Fluorescence ([3]; catalase, NaMoO4 1 μM, 100 μM H2O2): 54,776 and 34,302 and 31,904
- Fluorescence ([3]; catalase, NaMoO4 10 μM, 100 μM H2O2): 66,499 and 39,161 and 54,221
- Fluorescence ([3]; catalase, NaMoO4 100 μM, 100 μM H2O2): 137,047 and 103,725 and 102,097
- Fluorescence ([3]; no additive, NaMoO4 0 μM, 0 μM H2O2): 59,711 and 30,413 and 38,407
- Fluorescence ([3]; no additive, NaMoO4 0 μM, 100 μM H2O2): 48,948 and 86,970 and 68,803
- Fluorescence ([3]; no additive, NaMoO4 1 μM, 0 μM H2O2): 36,829 and 38,478 and 40,456
- Fluorescence ([3]; no additive, NaMoO4 1 μM, 10 μM H2O2): 27,103 and 23,437 and 25,142
- Fluorescence ([3]; no additive, NaMoO4 1 μM, 100 μM H2O2): 64,673 and 74,322 and 79,262
- Fluorescence ([3]; no additive, NaMoO4 10 μM, 10 μM H2O2): 33,243 and 34,233 and 26,543
- Fluorescence ([3]; no additive, NaMoO4 10 μM, 100 μM H2O2): 113,217 and 132,450 and 119,014
- Fluorescence ([3]; no additive, NaMoO4 100 μM, 0 μM H2O2): 24,734 and 26,617 and 17,702
- Fluorescence ([3]; no additive, NaMoO4 100 μM, 10 μM H2O2): 38,768 and 55,874 and 53,722
- Fluorescence ([3]; no additive, NaMoO4 100 μM, 100 μM H2O2): 468,686 and 476,166 and 482,448
- reaction with NO2^− [4]: did not react
- Fluorescence ([4]; 0 μM NO2^− or H2O2, pH 7, 25° C.): 24,359 and 26,870 and 26,226
- Fluorescence ([4]; 0.1 μM H2O2): 58,172 and 52,104 and 52,249
- Fluorescence ([4]; 0.1 μM NO2^−): 31,075 and 36,429 and 27,504
- Fluorescence ([4]; 1 μM H2O2): 266,770 and 242,313 and 222,834
- Fluorescence ([4]; 1 μM NO2^−): 26,768 and 31,470 and 33,004
- time to significant increase in fluorescence after H2O2 addition (HeLa cells): ≤ 30 s
